Data reported in US9458430B2, “Differentiation of pluripotent stem cells” (Janssen Biotech, Inc., priority 2010, dated 2016).

Experiments:
Assay type in all cases: cell-based
[1] = test system: human embryonic stem cells line H1; test: NGN3 immunostaining at stage IV of the Example 1 protocol; details: 100 nM of the CYP26A inhibitor vs control
[2] = test system: human embryonic stem cells line H1; test: Real-time PCR of pancreatic related genes in H1 cells differentiated by the Example 1 protocol
Description: FIGS. 1A to 1H show real-time PCR data obtained from samples obtained from cells at stages III-IV, of the protocol outlined in Example 1, for PAX4 (FIG. 1A), NGN3 (FIG. 1B), PDX1 (FIG. 1C), NEUROD (FIG. 1D), NKX6.1 (FIG. 1E), CDX2 (FIG. 1F), and Albumin (FIG. 1G). The y-axis is fold expression over undifferentiated H1 cells.
Cells of the human embryonic stem cells line H1 (p40-p50) were cultured on MATRIGEL®-coated dishes (1:30 dilution) (BD Biosciences; Cat #356231) in MEF-CM (mouse embryonic fibroblast conditioned medium) as colonies and differentiated into pancreatic endocrine precursor cells as follows: • a. Stage I (Definitive Endoderm): Human embryonic stem cells were cultured in RPMI medium supplemented with 2% fatty acid-free BSA (Catalog#68700, Proliant, IA), and 100 ng/ml activin A (R&D Systems, MN) plus 20 ng/ml WNT-3a (Catalog#1324-WN-002, R&D Systems, MN) plus 8 ng/ml of bFGF (Catalog#100-18B, PeproTech, NJ), for one day, followed by treatment with RPMI medium supplemented with 2% BSA and 100 ng/ml activin A plus 8 ng/ml of bFGF for an additional two days, then • b. Stage II (Primitive gut tube): Cells were treated with RPMI+2% fatty acid-free BSA and 50 ng/ml FGF7, for two days, then • c. Stage III (Posterior foregut): Cells were treated with DMEM/High-Glucose supplemented with 1:200 dilution of ITS-X (Invitrogen, CA) and 0.1% BSA (Lipid Rich) (Invitrogen, Ca No. 11021-045), 50 ng/ml FGF7, 0.25 μM SANT-1, 2 μM Retinoic acid (RA) (Sigma, MO), 100 ng/ml of Noggin (R & D Systems, MN), 2.5 μM 4-[4-(4-Fluorophenyl)-1-(3-phenylpropyl)-5-pyridin-4-yl-1H-imidazol-2-yl]but-3-yn-1-ol (a P38 inhibitor disclosed in U.S. Pat. No. 6,521,655), and activin A at 20 ng/ml for five days, then • d. Stage IV (Pancreatic endocrine precursor): Cells were treated with DMEM/High-Glucose supplemented with 1:200 dilution of ITS-X (Invitrogen, CA) and 0.1% BSA (Invitrogen, Ca), 100 ng/ml Noggin, 1 μM ALK5 inhibitor (SD-208, disclosed in Molecular Pharmacology 2007 72:152-161), 500 nM TPB (α-Amyloid Precursor Protein Modulator) (Catalogue #565740, EMD, CA), and 10-100 nM of the CYP26A inhibitor N-{4-[2-Ethyl-1-(1H-1,2,4-triazol-1-yl)butyl]phenyl}-1,3-benzothiazol-2-amine, and 10-100 nM Vitamin A (Catalogue#R7632, Sigma, MO) for four days, or
In some of the cultures, the Stage IV was extended to six days. mRNA was isolated at stages III and IV for real-time PCR analysis of pancreatic related genes.

[3] = test system: human embryonic stem cells line H1; test: Real-time PCR of pancreatic related genes in H1 cells differentiated by the Example 2 protocol
Description: FIGS. 2A to 2E show real-time PCR data obtained from samples obtained from cells at stages III-IV, of the protocol outlined in Example 2, for NGN3 (FIG. 2A), NEUROD (FIG. 2B), CDX2 (FIG. 2C), NKX6.1 (FIG. 2D) and, PDX1 (FIG. 2E). The y-axis is fold expression over undifferentiated H1 cells.
Cells of the human embryonic stem cells line H1 (p40-p52) were seeded as single cells at a density of 100000 cells/cm^2 on MATRIGEL®-coated dishes (1:30 dilution) (BD Biosciences; Cat #356231) in MEF-CM (mouse embryonic fibroblast conditioned media supplemented) with 16 ng/ml of FGF2 (Catalog#100-18B, PeproTech, NJ) and 10 μM of Y27632 (Rock inhibitor, Catalogue #Y0503, Sigma, MO). 72 hours post seeding, cultures were differentiated into definitive endoderm (DE) as follows: • a. Stage I (Definitive Endoderm): Human embryonic stem cells were treated with MCDB-131 (Catalogue#10372-019, Invitrogen, CA) medium supplemented with 2% fatty acid-free BSA (Catalog#68700, Proliant, IA), 0.0025 g/ml sodium bicarbonate (Catalogue #S3187, Sigma, MO), 1× GlutaMax™ (Catalogue #35050-079, Invitrogen, Ca) and 100 ng/ml activin A (R&D Systems, MN) plus 20 ng/ml WNT-3a (Catalog#1324-WN-002, R&D Systems, MN) for one day, followed by treatment with MCDB-131 medium supplemented with 2% BSA, sodium bicarbonate, Glutamax, and 100 ng/ml activin A for an additional three days, then • b. Stage II (Primitive gut tube): Cells were treated with MCDB-131+2% fatty acid-free BSA and 50 ng/ml FGF7 and for three days, then • c. Stage III (Posterior foregut): Cells were treated with MCDB-131/High-Glucose (25 mM glucose) supplemented with 1:200 dilution of ITS-X (Invitrogen, CA), 1× GlutaMax™ (Catalogue #35050-079, Invitrogen, Ca), 0.0025 g/ml sodium bicarbonate (Catalogue #S3187, Sigma, MO), 0.1% BSA (Lipid Rich) (Invitrogen, Ca No. 11021-045), 50 ng/ml FGF7, 0.25 μM SANT-1, 2 μM Retinoic acid (RA) (Sigma, MO), 2.5 μM 4-[4-(4-Fluorophenyl)-1-(3-phenylpropyl)-5-pyridin-4-yl-1H-imidazol-2-yl]but-3-yn-1-ol (a p38 inhibitor, disclosed in U.S. Pat. No. 6,521,655), 100 nM LDN-193189 (BMP receptor inhibitor, Catalogue #04-0019, Stemgent, CA), 500 nM of the CYP26A inhibitor N-{4-[2-Ethyl-1-(1H-1,2,4-triazol-1-yl)butyl]phenyl}-1,3-benzothiazol-2-amine, and activin A at 20 ng/ml for four days, then • d. Stage IV (Pancreatic endocrine precursor): Cells were treated MCDB-131/High-Glucose (25 mM glucose) supplemented with 1:200 dilution of ITS-X (Invitrogen, CA) and 0.1% BSA (Invitrogen, Ca), 1× GlutaMax™ (Catalogue #35050-079, Invitrogen, Ca), 0.0025 g/ml sodium bicarbonate (Catalogue #S3187, Sigma, MO), 1 μM ALK5 inhibitor (SD-208, disclosed in Molecular Pharmacology 2007 72:152-161), 500 nM PDBu (PKC activator) (Catalogue #P1269, Sigma, MO), 100 nM LDN-193189 (BMP receptor inhibitor, Catalogue #04-0019, Stemgent, CA), 0.25 μM SANT-1 (#S4572, Sigma, MO), and 500 nM of the CYP26A inhibitor N-{4-[2-Ethyl-1-(1H-1,2,4-triazol-1-yl)butyl]phenyl}-1,3-benzothiazol-2-amine for seven days, or • e. Stage IV (Pancreatic endocrine precursor): Cells were treated MCDB-131/High-Glucose (25 mM glucose) supplemented with 1:200 dilution of ITS-X (Invitrogen, CA) and 0.1% BSA (Invitrogen, Ca), 1× GlutaMax™ (Catalogue #35050-079, Invitrogen, Ca), 0.0025 g/ml sodium bicarbonate (Catalogue #S3187, Sigma, MO), 1 μM ALK5 inhibitor (SD-208, disclosed in Molecular Pharmacology 2007 72:152-161), 500 nM PDBu (PKC activator) (Catalogue #P1269, Sigma, MO), 100 nM LDN-193189 (BMP receptor inhibitor, Catalogue #04-0019, Stemgent, CA), 0.25 μM SANT-1 (#S4572, Sigma, MO) for seven days.
mRNA was isolated at stages III and IV for real-time PCR analysis of pancreatic related genes. Similar to the results observed in Example 1 above, addition of CYP26A inhibitor to stage IV enhanced expression of pancreatic endocrine precursor markers, such as NGN3 and NeuroD. (See FIG. 2A to 2E).

[4] = added at stage IV, 10-100 nM, mRNA, real-time PCR, dose dependent
[5] = added at stage IV, mRNA, real-time PCR
[6] = 500 nM added to both stages III and IV
[7] = 500 nM added to stage III in the presence of retinoic acid

| Molecule | expression of NGN3 by immunostaining [1] | expression of endocrine precursor marker NGN3 [2, 4] | expression of endocrine precursor marker NeuroD [2, 4] | expression of endocrine precursor marker Pax4 [2, 4] | expression of pancreatic endoderm marker NKX6.1 [2, 4] | expression of CDX2 (an intestinal marker) [2, 5] | expression of albumin (a liver marker) [2, 5] | expression of NGN3 [3, 6] | expression of NeuroD [3, 6] | expression of CDX2 [3, 7] | expression of NKX6.1 [3, 7] | expression of PDX-1 [3, 7] | expression of pancreatic endocrine precursor marker NGN3 ([3]; 500 nM added to stage IV) | expression of pancreatic endocrine precursor marker NeuroD ([3]; 500 nM added to stage IV) | expression of pancreatic endoderm or endocrine precursor markers ([2]; vitamin A 10-100 nM added along with the CYP26A inhibitor at stage IV) |
| --- | --- | --- | --- | --- | --- | --- | --- | --- | --- | --- | --- | --- | --- | --- | --- |
| CCC(CC)[C@H](c1ccc(Nc2nc3ccccc3s2)cc1)n1cncn1 (stereo in doubt) [CYP26A inhibitor, N-{4-[2-Ethyl-1-(1H-1,2,4-triazol-1-yl)butyl]phenyl}-1,3-benzothiazol-2-amine] | significant boost | significantly boosted | significantly boosted | significantly boosted | significantly boosted | decreased | decreased | further enhanced | further enhanced | enhancing | significantly down regulated | significantly down regulated | enhanced | enhanced |  |
| Vitamin A |  |  |  |  |  |  |  |  |  |  |  |  |  |  | did not significantly modify |
